Target: T1, human TLR9 (Homo sapiens, UniProt Q9NR96)
T1 sequence (Q9NR96 26-1032): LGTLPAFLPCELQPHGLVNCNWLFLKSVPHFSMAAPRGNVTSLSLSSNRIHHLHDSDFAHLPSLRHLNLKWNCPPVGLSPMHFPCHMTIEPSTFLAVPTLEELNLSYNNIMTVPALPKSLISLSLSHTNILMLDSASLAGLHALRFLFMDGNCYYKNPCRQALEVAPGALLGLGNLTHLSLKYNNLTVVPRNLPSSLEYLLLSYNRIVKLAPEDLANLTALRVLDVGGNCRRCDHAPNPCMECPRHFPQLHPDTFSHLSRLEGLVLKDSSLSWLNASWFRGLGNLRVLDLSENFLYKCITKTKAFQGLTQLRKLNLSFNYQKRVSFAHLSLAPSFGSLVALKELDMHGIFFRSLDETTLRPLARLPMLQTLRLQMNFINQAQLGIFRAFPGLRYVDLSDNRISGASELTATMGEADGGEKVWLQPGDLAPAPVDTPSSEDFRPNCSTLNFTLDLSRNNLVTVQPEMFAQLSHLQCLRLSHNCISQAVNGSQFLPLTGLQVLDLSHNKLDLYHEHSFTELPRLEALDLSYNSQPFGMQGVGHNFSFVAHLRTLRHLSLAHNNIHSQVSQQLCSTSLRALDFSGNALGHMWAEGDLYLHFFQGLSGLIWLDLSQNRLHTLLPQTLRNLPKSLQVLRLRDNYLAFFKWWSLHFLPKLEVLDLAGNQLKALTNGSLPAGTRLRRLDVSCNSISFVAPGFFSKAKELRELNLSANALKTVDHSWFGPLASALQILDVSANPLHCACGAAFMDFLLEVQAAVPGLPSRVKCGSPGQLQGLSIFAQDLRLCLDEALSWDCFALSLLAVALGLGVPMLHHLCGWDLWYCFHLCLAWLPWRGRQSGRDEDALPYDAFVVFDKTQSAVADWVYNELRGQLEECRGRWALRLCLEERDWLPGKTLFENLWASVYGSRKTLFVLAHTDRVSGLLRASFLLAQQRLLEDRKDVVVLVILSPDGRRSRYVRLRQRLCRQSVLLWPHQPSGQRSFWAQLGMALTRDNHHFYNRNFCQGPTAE
Test: HEK293-Blue-hTLR-9 cells assay (SEAP reporter, ODN2006 stimulation)
Format: cell-based
Details: HEK293-Blue-hTLR9 cells, ODN2006 ligand, 20 hrs incubation
Experimental: The following tests were carried out in order to determine the activity of the compounds of formula (I) in HEK293-Blue-hTLR-7/8/9 cells assay.
HEK293-Blue-hTLR-9 Cells Assay:
A stable HEK293-Blue-hTLR-9 cell line was purchased from InvivoGen (Cat. #: hkb-htlr9, San Diego, Calif., USA). These cells were originally designed for studying the stimulation of human TLR9 by monitoring the activation of NF-κB. A SEAP (secreted embryonic alkaline phosphatase) reporter gene was placed under the control of the IFN-β minimal promoter fused to five NF-κB and AP-1-binding sites. The SEAP was induced by activating NF-κB and AP-1 via stimulating HEK-Blue hTLR9 cells with TLR9 ligands. Therefore the reporter expression was declined by TLR9 antagonist under the stimulation of a ligand, such as ODN2006 (Cat. #: tlrl-2006-1, Invivogen, San Diego, Calif., USA), for incubation of 20 hrs. The cell culture supernatant SEAP reporter activity was determined using QUANTI-Blue™ kit (Cat. #: rep-qb1, Invivogen, San Diego, Calif., USA) at a wavelength of 640 nm, a detection medium that turns purple or blue in the presence of alkaline phosphatase.
HEK293-Blue-hTLR9 cells were incubated at a density of 250,000˜450,000 cells/mL in a volume of 170 μL in a 96-well plate in Dulbecco's Modified Eagle's medium (DMEM) containing 4.5 g/L glucose, 50 U/mL penicillin, […], […], 2 mM L-glutamine, 10% (v/v) heat-inactivated fetal bovine serum with addition of 20 μL test compound in a serial dilution in the presence of final DMSO at 1% and 10 μL of 20 uM ODN2006 in above DMEM, perform incubation under 37° C. in a CO2incubator for 20 hrs. Then 20 μL of the superatant from each well was incubated with 180 μL Quanti-blue substrate solution at 37° C. for 2 hrs and the absorbance was read at 620˜655 nm using a spectrophotometer. The signalling pathway that TLR9 activation leads to downstream NF-κB activation has been widely accepted, and therefore similar reporter assay was modified for evaluating TLR9 antagonist.

**Q.** Which IC50 does the source give for `N#Cc1ccc(N2C[C@H](CN3CCC(N4CCCCC4)CC3)[C@@H](C(F)(F)F)C2)c2cccnc12` [Example 10, 5-[(3S,4R)-3-[[4-(1-piperidyl)-1-piperidyl]methyl]-4-(trifluoromethyl)pyrrolidin-1-yl]quinoline-8-carbonitrile] here?
**A.** Its IC50 is 834 nM.

**Q.** `C[C@H]1CN(C[C@H]2CN(c3ccc(C#N)c4nccnc34)C[C@@H]2C(F)(F)F)CC[C@H]1N` [Example 72, 8-[(3S,4R)-3-[[(3S,4R)-4-amino-3-methyl-1-piperidyl]methyl]-4-(trifluoromethyl)pyrrolidin-1-yl]quinoxaline-5-carbonitrile] was tested. Which IC50 did it give?
**A.** Its IC50 is 506 nM.

**Q.** Which IC50 does the source give for `N#Cc1ccc(N2CC(CN3CC4(CCCNC4)C3)C3(CC3)C2)c2nccnc12` (stereo not drawn) [Example 24, 8-[7-(2,8-Diazaspiro[3.5]nonan-2-ylmethyl)-5-azaspiro[2.4]heptan-5-yl]quinoxaline-5-carbonitrile] here?
**A.** Its IC50 is 82 nM.

**Q.** With `N#Cc1ccc(N2C[C@H](CN3CCC4(CCNC4)CC3)[C@@H](C(F)(F)F)C2)c2cccnc12` [Example 54, 5-[(3S,4R)-3-(2,8-Diazaspiro[4.5]decan-8-ylmethyl)-4-(trifluoromethyl)pyrrolidin-1-yl]quinoline-8-carbonitrile] as the molecule, how does the IC50 read?
**A.** The IC50 was 152 nM.

**Q.** With `N#Cc1ccc(N2C[C@H](CN3CC4CNCC4C3)[C@@H](C(F)(F)F)C2)c2nccnc12` (stereo partly drawn) [Example 76, 8-[(3S,4R)-3-(2,3,3a,4,6,6a-hexahydro-1H-pyrrolo[3,4-c]pyrrol-5-ylmethyl)-4-(trifluoromethyl)pyrrolidin-1-yl]quinoxaline-5-carbonitrile] as the molecule, how does the IC50 read?
**A.** Its IC50 is 485 nM.

**Q.** `N#Cc1ccc(N2C[C@H](CN3CCCC(F)(CN)C3)[C@@H](C(F)(F)F)C2)c2nccnc12` (stereo partly drawn) [Example 78, 8-[(3S,4R)-3-[[3-(aminomethyl)-3-fluoro-1-piperidyl]methyl]-4-(trifluoromethyl)pyrrolidin-1-yl]quinoxaline-5-carbonitrile] was tested. Which IC50 did it give?
**A.** Its IC50 is 1920 nM.

**Q.** With `N#Cc1ccc(N2C[C@H](CN3CCNCC3)[C@@H](C(F)(F)F)C2)c2nccnc12` [Example 59, 8-[(3S,4R)-3-(Piperazin-1-ylmethyl)-4-(trifluoromethyl)pyrrolidin-1-yl]quinoxaline-5-carbonitrile] as the molecule, how does the IC50 read?
**A.** Its IC50 is 2700 nM.

**Q.** Which IC50 does the source give for `C[C@H]1CN(c2ccc(C#N)c3ncccc23)C[C@@H]1CN1CCC2(CCNCC2)CC1` [Example 23, 5-[(3S,4R)-3-(3,9-diazaspiro[5.5]undecan-3-ylmethyl)-4-methyl-pyrrolidin-1-yl]quinoline-8-carbonitrile] here?
**A.** The IC50 was 45 nM.

**Q.** With `N#Cc1ccc(N2CC(CN3CCC4(CCNC4)C3)C3(CC3)C2)c2cccnc12` (stereo not drawn) [Example 43, 5-[7-(2,7-Diazaspiro[4.4]nonan-2-ylmethyl)-5-azaspiro[2.4]heptan-5-yl]quinoline-8-carbonitrile] as the molecule, how does the IC50 read?
**A.** The IC50 was 62 nM.

**Q.** How did the IC50 turn out when `N#Cc1ccc(N2C[C@H](CN3CC4(CC(N)C4)C3)[C@@H](C(F)(F)F)C2)c2nccnc12` [Example 47, 8-[(3S,4R)-3-[(6-amino-2-azaspiro[3.3]heptan-2-yl)methyl]-4-(trifluoromethyl)pyrrolidin-1-yl]quinoxaline-5-carbonitrile] was run?
**A.** The IC50 was 177 nM.

**Q.** With `N#Cc1ccc(N2C[C@@H](CN3CCC4(CCNCC4)CC3)[C@H](C3CC3)C2)c2cccnc12` (relative stereo) [Example 28, 5-[Trans-3-cyclopropyl-4-(3,9-diazaspiro[5.5]undecan-3-ylmethyl)pyrrolidin-1-yl]quinoline-8-carbonitrile] as the molecule, how does the IC50 read?
**A.** The IC50 was 39 nM.

**Q.** How did the IC50 turn out when `N#Cc1ccc(N2CC(CN3CCC(N)CC3)C3(CC3)C2)c2nccnc12` (stereo not drawn) [Example 68, 8-[7-[(4-Amino-1-piperidyl)methyl]-5-azaspiro[2.4]heptan-5-yl]quinoxaline-5-carbonitrile] was run?
**A.** The IC50 was 93 nM.

**Q.** With `CC(C)[C@@H]1CN(c2ccc(C#N)c3ncccc23)C[C@H]1CN1CCC2(CCNCC2)CC1` (relative stereo) [Example 36, 5-[Trans-3-(3,9-diazaspiro[5.5]undecan-3-ylmethyl)-4-isopropyl-pyrrolidin-1-yl]quinoline-8-carbonitrile] as the molecule, how does the IC50 read?
**A.** Its IC50 is 50 nM.

**Q.** `N#Cc1ccc(N2CCC(CN3CCC4(CCNCC4)CC3)C2)c2nccnc12` (stereo not drawn) [Example 37, 8-[3-(3,9-Diazaspiro[5.5]undecan-3-ylmethyl)pyrrolidin-1-yl]quinoxaline-5-carbonitrile] was tested. Which IC50 did it give?
**A.** Its IC50 is 32 nM.

**Q.** Which IC50 does the source give for `N#Cc1ccc(N2C[C@H](CN3CCC(N4CCNCC4)CC3)[C@@H](C(F)(F)F)C2)c2cccnc12` [Example 52, 5-[(3S,4R)-3-[(4-piperazin-1-yl-1-piperidyl)methyl]-4-(trifluoromethyl)pyrrolidin-1-yl]quinoline-8-carbonitrile] here?
**A.** The IC50 was 208 nM.

**Q.** `CN(C)C1CCN(C[C@H]2CN(c3ccc(C#N)c4nccnc34)C[C@@H]2C(F)(F)F)CC1` [Example 80, 8-[(3S,4R)-3-[[4-(dimethylamino)-1-piperidyl]methyl]-4-(trifluoromethyl)pyrrolidin-1-yl]quinoxaline-5-carbonitrile] was tested. Which IC50 did it give?
**A.** The IC50 was 706 nM.

**Q.** `C[C@H]1CN(c2ccc(C#N)c3nccnc23)C[C@@H]1CN1CCC2(CCNCC2)CC1` [Example 17, 8-[(3S,4R)-3-(3,9-diazaspiro[5.5]undecan-3-ylmethyl)-4-methyl-pyrrolidin-1-yl]quinoxaline-5-carbonitrile] was tested. Which IC50 did it give?
**A.** The IC50 was 134 nM.

**Q.** Which IC50 does the source give for `N#Cc1ccc(N2CC(CN3CC4CCNCC43)C3(CC3)C2)c2nccnc12` (stereo not drawn) [Example 50, 8-[7-(3,8-Diazabicyclo[4.2.0]octan-8-ylmethyl)-5-azaspiro[2.4]heptan-5-yl]quinoxaline-5-carbonitrile] here?
**A.** The IC50 was 259 nM.

**Q.** With `FC(F)(F)c1ccc(N2CC(CN3CCC4(CCNCC4)CC3)C3(CC3)C2)c2nccnc12` (stereo not drawn) [Example 31, 3-[[5-[8-(Trifluoromethyl)quinoxalin-5-yl]-5-azaspiro[2.4]heptan-7-yl]methyl]-3,9-diazaspiro[5.5]undecane] as the molecule, how does the IC50 read?
**A.** Its IC50 is 383 nM.

**Q.** For `CC(C)[C@@H]1CN(c2ccc(C#N)c3ncccc23)C[C@H]1CN1CCC2(CCNC2)C1` (relative stereo) [Example 44, 5-[Trans-3-(2,7-diazaspiro[4.4]nonan-2-ylmethyl)-4-isopropyl-pyrrolidin-1-yl]quinoline-8-carbonitrile], which IC50 is on record?
**A.** The IC50 was 91 nM.

**Q.** `N#Cc1ccc(N2C[C@H](CN3CC4CCC3CN4)[C@@H](C(F)(F)F)C2)c2nccnc12` (stereo partly drawn) [Example 77, 8-[(3S,4R)-3-(2,5-diazabicyclo[2.2.2]octan-2-ylmethyl)-4-(trifluoromethyl)pyrrolidin-1-yl]quinoxaline-5-carbonitrile] was tested. Which IC50 did it give?
**A.** Its IC50 is 2340 nM.

**Q.** How did the IC50 turn out when `N#Cc1ccc(N2C[C@H](CN3CCC4(CCCNC4)CC3)[C@@H](C(F)(F)F)C2)c2nccnc12` [Example 45, 8-[(3S,4R)-3-(2,9-diazaspiro[5.5]undecan-9-ylmethyl)-4-(trifluoromethyl)pyrrolidin-1-yl]quinoxaline-5-carbonitrile] was run?
**A.** The IC50 was 224 nM.

**Q.** Which IC50 does the source give for `N#Cc1ccc(N2CC(CN3CCC4NCC4C3)C3(CC3)C2)c2nccnc12` (stereo not drawn) [Example 66, 8-[7-(3,7-Diazabicyclo[4.2.0]octan-3-ylmethyl)-5-azaspiro[2.4]heptan-5-yl]quinoxaline-5-carbonitrile] here?
**A.** The IC50 was 123 nM.

**Q.** `N#Cc1ccc(N2CC(CN3C4CCC3CC(N)C4)C3(CC3)C2)c2nccnc12` (stereo not drawn) [Example 25, 8-[7-[(3-Amino-8-azabicyclo[3.2.1]octan-8-yl)methyl]-5-azaspiro[2.4]heptan-5-yl]quinoxaline-5-carbonitrile] was tested. Which IC50 did it give?
**A.** The IC50 was 75 nM.
